According to the supplement of paper PMC10307832:

Assays:
Test in all cases: relative viability (nuclei count vs DMSO), 5 days (fraction); higher = more cells survive
[1] = tested on: 201T
Outline: (§1)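 Nuclei were stained with Hoechst during a one-step fixation (final 0.05% Triton X-100, 1% formaldehyde, 1 ug/ml Hoechst) carried out 5 days after dosing, then counted on 4× images. The cells, lung cancer lines in 1536-well plates, had been dosed by pin tool the day after seeding with one drug alone or a fixed anchor-drug dose plus five library-drug doses (not always all listed) in √10 steps. Relative viability is the nuclei count in treated wells divided by that in vehicle wells, and each value is the median of duplicate plates.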

[2] = tested on: COR-L23
Outline: as §1

[3] = tested on: LCLC-97TM1
Outline: as §1

[4] = tested on: PC-14
Outline: as §1

[5] = tested on: NCI-H650
Outline: as §1

[6] = tested on: NCI-H1355
Outline: as §1

[7] = tested on: NCI-H2126
Outline: as §1

[8] = tested on: NCI-H2009
Outline: as §1

[9] = tested on: HCC-78
Outline: as §1

[10] = tested on: NCI-H1734
Outline: as §1

[11] = tested on: LCLC-103H
Outline: as §1

[12] = tested on: NCI-H460
Outline: as §1

[13] = tested on: HARA
Outline: as §1

[14] = tested on: NCI-H647
Outline: as §1

[15] = tested on: NCI-H1792
Outline: as §1

[16] = tested on: HCC-15
Outline: as §1

[17] = tested on: NCI-H596
Outline: as §1

[18] = tested on: NCI-H441
Outline: as §1

[19] = tested on: LOU-NH91
Outline: as §1

[20] = tested on: HCC-366
Outline: as §1

Work on `COCC1(CO)C(=O)C2CCN1CC2` (stereo not given) [PRIMA-1MET] + Cc1nc(NC(=O)N2CCC[C@H]2C(N)=O)sc1-c1ccnc(C(C)(C)C(F)(F)F)c1 [Alpelisib] (partner 2 µM) yielded a relative viability ([1]; first compound 0.2 µM) of 1.04, a relative viability ([1]; first compound 0.6325 µM) of 0.971 and a relative viability ([1]; first compound 2 µM) of 0.885. The relative viability ([1]; first compound 6.325 µM) was 1.05, the relative viability ([1]; first compound 20 µM) was 1.03 and the relative viability ([2]; first compound 0.2 µM) was 0.783. It also gave a relative viability ([2]; first compound 0.6325 µM) of 0.699, a relative viability ([2]; first compound 2 µM) of 0.869 and a relative viability ([2]; first compound 6.325 µM) of 0.726. The relative viability ([2]; first compound 20 µM) was 0.0226, the relative viability ([3]; first compound 0.2 µM) was 0.277 and the relative viability ([3]; first compound 2 µM) was 0.22. It also gave a relative viability ([3]; first compound 6.325 µM) of 0.232, a relative viability ([3]; first compound 20 µM) of 0.0607 and a relative viability ([4]; first compound 0.2 µM) of 0.839. For the same compound, the relative viability ([4]; first compound 0.6325 µM) was 1.03, the relative viability ([4]; first compound 2 µM) was 0.926 and the relative viability ([4]; first compound 6.325 µM) was 1.07. For the same compound, the relative viability ([4]; first compound 20 µM) was 0.905, the relative viability ([5]; first compound 0.2 µM) was 1.38 and the relative viability ([5]; first compound 2 µM) was 1.08. The relative viability ([5]; first compound 6.325 µM) was 1.02, the relative viability ([5]; first compound 20 µM) was 0.099 and the relative viability ([6]; first compound 0.2 µM) was 0.953. The relative viability ([6]; first compound 0.6325 µM) was 0.7, the relative viability ([6]; first compound 2 µM) was 0.766 and the relative viability ([6]; first compound 6.325 µM) was 0.86. The relative viability ([6]; first compound 20 µM) was 0.852, the relative viability ([7]; first compound 0.2 µM) was 0.822 and the relative viability ([7]; first compound 0.6325 µM) was 0.749. For the same compound, the relative viability ([7]; first compound 2 µM) was 0.743, the relative viability ([7]; first compound 6.325 µM) was 0.848 and the relative viability ([7]; first compound 20 µM) was 0.706. It also gave a relative viability ([8]; first compound 0.2 µM) of 1.12, a relative viability ([8]; first compound 0.6325 µM) of 1.15 and a relative viability ([8]; first compound 2 µM) of 1.23. It also gave a relative viability ([8]; first compound 6.325 µM) of 1.13, a relative viability ([8]; first compound 20 µM) of 0.325 and a relative viability ([9]; first compound 0.2 µM) of 0.364. For the same compound, the relative viability ([9]; first compound 0.6325 µM) was 0.26, the relative viability ([9]; first compound 6.325 µM) was 0.335 and the relative viability ([9]; first compound 20 µM) was 0.0523. For the same compound, the relative viability ([10]; first compound 0.2 µM) was 0.876, the relative viability ([10]; first compound 0.6325 µM) was 0.658 and the relative viability ([10]; first compound 2 µM) was 0.679. It also gave a relative viability ([10]; first compound 6.325 µM) of 0.73, a relative viability ([10]; first compound 20 µM) of 0.3 and a relative viability ([11]; first compound 0.2 µM) of 1.1. For the same compound, the relative viability ([11]; first compound 0.6325 µM) was 0.966, the relative viability ([11]; first compound 2 µM) was 0.793 and the relative viability ([11]; first compound 6.325 µM) was 1.09. The relative viability ([11]; first compound 20 µM) was 0.935, the relative viability ([12]; first compound 0.2 µM) was 0.571 and the relative viability ([12]; first compound 0.6325 µM) was 0.358. For the same compound, the relative viability ([12]; first compound 2 µM) was 0.411, the relative viability ([12]; first compound 6.325 µM) was 0.0066 and the relative viability ([12]; first compound 20 µM) was 0.0038. For the same compound, the relative viability ([13]; first compound 0.2 µM) was 0.97, the relative viability ([13]; first compound 0.6325 µM) was 0.603 and the relative viability ([13]; first compound 6.325 µM) was 0.836. It also gave a relative viability ([13]; first compound 20 µM) of 0.954, a relative viability ([14]; first compound 0.2 µM) of 1.33 and a relative viability ([14]; first compound 0.6325 µM) of 1.04. The relative viability ([14]; first compound 2 µM) was 1.13, the relative viability ([14]; first compound 6.325 µM) was 1.09 and the relative viability ([14]; first compound 20 µM) was 0.892. It also gave a relative viability ([15]; first compound 0.2 µM) of 0.708, a relative viability ([15]; first compound 0.6325 µM) of 0.557 and a relative viability ([15]; first compound 2 µM) of 0.456. The relative viability ([15]; first compound 6.325 µM) was 0.754, the relative viability ([15]; first compound 20 µM) was 0.687 and the relative viability ([16]; first compound 0.2 µM) was 1.01. It also gave a relative viability ([16]; first compound 0.6325 µM) of 0.708, a relative viability ([16]; first compound 2 µM) of 0.81 and a relative viability ([16]; first compound 6.325 µM) of 0.999. For the same compound, the relative viability ([16]; first compound 20 µM) was 0.643, the relative viability ([17]; first compound 0.2 µM) was 0.539 and the relative viability ([17]; first compound 0.6325 µM) was 0.446. It also gave a relative viability ([17]; first compound 2 µM) of 0.586, a relative viability ([17]; first compound 6.325 µM) of 0.673 and a relative viability ([17]; first compound 20 µM) of 0.469. It also gave a relative viability ([18]; first compound 0.2 µM) of 0.648, a relative viability ([18]; first compound 0.6325 µM) of 0.792 and a relative viability ([18]; first compound 2 µM) of 0.762. For the same compound, the relative viability ([18]; first compound 6.325 µM) was 0.816, the relative viability ([18]; first compound 20 µM) was 0.118 and the relative viability ([19]; first compound 0.2 µM) was 0.78. The relative viability ([19]; first compound 0.6325 µM) was 0.652, the relative viability ([19]; first compound 2 µM) was 0.569 and the relative viability ([19]; first compound 6.325 µM) was 0.669. The relative viability ([19]; first compound 20 µM) was 0.507, the relative viability ([20]; first compound 0.2 µM) was 0.865 and the relative viability ([20]; first compound 0.6325 µM) was 0.37. The relative viability ([20]; first compound 6.325 µM) was 0.376 and the relative viability ([20]; first compound 20 µM) was 0.0102.
